Results taken from patent US20170233409A1, “TYPE IV SECRETION SYSTEM INHIBITORS” (priority 2016, published 2017).

System: type V secretion system-mediated release of the cytotoxin VacA
Assay type: cell-based, H. pylori

Structure (SMILES)	type V secretion system-mediated release of VacA into cell culture supernatants
COc1ccc(Cc2cc(=O)n3c(c2C2CC2)SC[C@H]3C(=O)O)c2ccccc12 [KSK85, (3R)-7-[(4-methoxynaphthalen-1-yl)methyl]-8-cyclopropyl-5-oxo-2,3-dihydro-5H-[1,3]thiazolo[3,2-a]pyridine-3-carboxylic acid]	did not impair
O=C(O)[C@@H]1CSc2c(C3CC3)c(Cc3cccc4ccccc34)cc(=O)n21 [Compound C10, (3R)-8-cyclopropyl-7-(naphthalen-1-ylmethyl)-5-oxo-3,5-dihydro-2H-thiazolo[3,2-a]pyridine-3-carboxylic acid]	did not impair
